According to the supplement of paper PMC11061612:

Assays:
Venetoclax = compound: CC1(C)CCC(CN2CCN(c3ccc(C(=O)NS(=O)(=O)c4ccc(NCC5CCOCC5)c([N+](=O)[O-])c4)c(Oc4cnc5[nH]ccc5c4)c3)CC2)=C(c2ccc(Cl)cc2)C1 [Venetoclax]; conditions: max 1 µM
Procedure, shortened: (§1)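 Plates with 1536 wells received cancer cell lines in 7.5 μl of DMEM/F12 or RPMI containing 10% FBS. After 24 hours at 37°C and 5% CO2, cells were dosed for 72 hours with final DMSO typically 0.2%, and viability was read by CellTiter-Glo 2.0 luminescence scaled between blank-well and DMSO-well means. The single-agent IC50 was taken from a logistic fit of the dose responses made with a non-linear mixed effects model, that logistic curve having two parameters.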

AZD5153 = compound: COc1nnc2ccc(N3CCC(c4ccc(OCCN5CCN(C)C(=O)[C@H]5C)cc4)CC3)nn12 [AZD5153]; conditions: max 1 µM
Procedure, shortened: as §1

AZD8186 = compound: C[C@@H](Nc1cc(F)cc(F)c1)c1cc(C(=O)N(C)C)cc2c(=O)cc(N3CCOCC3)oc12 [AZD8186]; conditions: max 3 µM
Procedure, shortened: as §1

AZD5991 = compound: Cc1c2c(nn1C)CSCc1cc(n(C)n1)CSc1cc(c3ccccc3c1)OCCCc1c(C(=O)O)n(C)c3c-2c(Cl)ccc13 [AZD5991]; conditions: max 1 µM
Procedure, shortened: as §1

AZD4320 = compound: CN(CC[C@H](CSC1=CC=CC=C1)NC2=C(C=C(C=C2)S(=O)(=O)NC(=O)C3=CC=C(C=C3)N4CCC(CC4)[C@H](C5=CC=CC=C5C6=CC=C(C=C6)Cl)O)S(=O)(=O)C(F)(F)F)CCO [AZD4320]; conditions: max 1 µM
Procedure, shortened: as §1

Taselisib = compound: Cc1nc(-c2cn3c(n2)-c2ccc(-c4cnn(C(C)(C)C(N)=O)c4)cc2OCC3)n(C(C)C)n1 [Taselisib]; conditions: max 10 µM
Procedure, shortened: as §1

Crizotinib = compound: C[C@@H](Oc1cc(-c2cnn(C3CCNCC3)c2)cnc1N)c1c(Cl)ccc(F)c1Cl [Crizotinib]; conditions: max 10 µM
Procedure, shortened: as §1

Selumetinib = compound: Cn1cnc2c(F)c(Nc3ccc(Br)cc3Cl)c(C(=O)NOCCO)cc21 [Selumetinib]; conditions: max 10 µM
Procedure, shortened: as §1

AZD1775 = compound: C=CCn1c(=O)c2cnc(Nc3ccc(N4CCN(C)CC4)cc3)nc2n1-c1cccc(C(C)(C)O)n1 [AZD1775]; conditions: max 3 µM
Procedure, shortened: as §1

AZD6738 = compound: C[C@@H]1COCCN1C2=NC(=NC(=C2)C3(CC3)[S@](=N)(=O)C)C4=C5C=CNC5=NC=C4 [AZD6738]; conditions: max 10 µM
Procedure, shortened: as §1

Trametinib = compound: CC(=O)Nc1cccc(-n2c(=O)n(C3CC3)c(=O)c3c(Nc4ccc(I)cc4F)n(C)c(=O)c(C)c32)c1 [Trametinib]; conditions: max 1 µM
Procedure, shortened: as §1

Prexasertib = compound: COc1cccc(OCCCN)c1-c1cc(Nc2cnc(C#N)cn2)n[nH]1 [Prexasertib]; conditions: max 1 µM
Procedure, shortened: as §1

AZD0156 = compound: CN(C)CCCOc1ccc(-c2ccc3ncc4c(c3c2)n(C2CCOCC2)c(=O)n4C)cn1 [AZD0156]; conditions: max 3 µM
Procedure, shortened: as §1

Capivasertib = compound: C1CN(CCC1(C(=O)N[C@@H](CCO)C2=CC=C(C=C2)Cl)N)C3=NC=NC4=C3C=CN4 [Capivasertib]; conditions: max 10 µM
Procedure, shortened: as §1

SN-38 = compound: CCc1c2c(nc3ccc(O)cc13)-c1cc3c(c(=O)n1C2)COC(=O)[C@]3(O)CC [SN-38]; conditions: max 0.3 µM
Procedure, shortened: as §1

Alisertib = compound: COc1cc(Nc2ncc3c(n2)-c2ccc(Cl)cc2C(c2c(F)cccc2OC)=NC3)ccc1C(=O)O [Alisertib]; conditions: max 10 µM
Procedure, shortened: as §1

AZD7648 = compound: Cc1cc2ncnn2cc1Nc1ncc2c(n1)n(C1CCOCC1)c(=O)n2C [AZD7648]; conditions: max 10 µM
Procedure, shortened: as §1

Doxorubicin = compound: COc1cccc2c1C(=O)c1c(O)c3c(c(O)c1C2=O)C[C@@](O)(C(=O)CO)C[C@@H]3O[C@H]1C[C@H](N)[C@H](O)[C@H](C)O1 [Doxorubicin]; conditions: max 1 µM
Procedure, shortened: as §1

SG3199 = compound: CC1=CN2[C@@H](C1)C=NC3=CC(=C(C=C3C2=O)OC)OCCCCCOC4=C(C=C5C(=C4)N=C[C@@H]6CC(=CN6C5=O)C)OC [SG3199]; conditions: max 0.001 µM
Procedure, shortened: as §1

Olaparib = compound: O=C(c1cc(Cc2n[nH]c(=O)c3ccccc23)ccc1F)N1CCN(C(=O)C2CC2)CC1 [Olaparib]; conditions: max 10 µM
Procedure, shortened: as §1

AZD1390 = compound: CC(C)n1c(=O)n(C)c2cnc3cc(F)c(-c4ccc(OCCCN5CCCCC5)nc4)cc3c21 [AZD1390]; conditions: max 0.3 µM
Procedure, shortened: as §1

Gefitinib = compound: COc1cc2ncnc(Nc3ccc(F)c(Cl)c3)c2cc1OCCCN1CCOCC1 [Gefitinib]; conditions: max 10 µM
Procedure, shortened: as §1

Savolitinib = compound: C[C@@H](c1ccc2nccn2c1)n1nnc2ncc(-c3cnn(C)c3)nc21 [Savolitinib]; conditions: max 1 µM
Procedure, shortened: as §1

Lapatinib = compound: CS(=O)(=O)CCNCc1ccc(-c2ccc3ncnc(Nc4ccc(OCc5cccc(F)c5)c(Cl)c4)c3c2)o1 [Lapatinib]; conditions: max 10 µM
Procedure, shortened: as §1

Dasatinib = compound: CC1=C(C(=CC=C1)Cl)NC(=O)C2=CN=C(S2)NC3=CC(=NC(=N3)C)N4CCN(CC4)CCO [Dasatinib]; conditions: max 2 µM
Procedure, shortened: as §1

Palbociclib = compound: CC(=O)c1c(C)c2cnc(Nc3ccc(N4CCNCC4)cn3)nc2n(C2CCCC2)c1=O [Palbociclib]; conditions: max 10 µM
Procedure, shortened: as §1

AZD2811 = compound: CCN(CCO)CCCOc1ccc2c(Nc3cc(CC(=O)Nc4cccc(F)c4)[nH]n3)ncnc2c1 [AZD2811]; conditions: max 1 µM
Procedure, shortened: as §1

WM278 (Melanoma)
IC50, cell viability 72 h (Venetoclax): > 1000 nM | IC50, cell viability 72 h (AZD5153): > 1000 nM | IC50, cell viability 72 h (AZD8186): > 3000 nM | IC50, cell viability 72 h (AZD5991): > 1000 nM | IC50, cell viability 72 h (AZD4320): > 1000 nM | IC50, cell viability 72 h (Taselisib): > 10000 nM | IC50, cell viability 72 h (Crizotinib): > 10000 nM | IC50, cell viability 72 h (Selumetinib): 3570 nM | IC50, cell viability 72 h (AZD1775): > 3000 nM | IC50, cell viability 72 h (AZD6738): > 10000 nM | IC50, cell viability 72 h (Trametinib): 85.8 nM | IC50, cell viability 72 h (Prexasertib): 413 nM | IC50, cell viability 72 h (AZD0156): > 3000 nM | IC50, cell viability 72 h (Capivasertib): > 10000 nM | IC50, cell viability 72 h (SN-38): 200 nM | IC50, cell viability 72 h (Alisertib): > 10000 nM | IC50, cell viability 72 h (AZD7648): > 10000 nM | IC50, cell viability 72 h (Doxorubicin): > 1000 nM | IC50, cell viability 72 h (SG3199): > 1 nM | IC50, cell viability 72 h (Olaparib): > 10000 nM | IC50, cell viability 72 h (AZD1390): > 300 nM | IC50, cell viability 72 h (Gefitinib): > 10000 nM | IC50, cell viability 72 h (Savolitinib): > 1000 nM | IC50, cell viability 72 h (Lapatinib): > 10000 nM | IC50, cell viability 72 h (Dasatinib): > 2000 nM | IC50, cell viability 72 h (Palbociclib): > 10000 nM | IC50, cell viability 72 h (AZD2811): > 1000 nM

CAL-120 (Breast Carcinoma)
IC50, cell viability 72 h (Venetoclax): > 1000 nM | IC50, cell viability 72 h (AZD5153): > 1000 nM | IC50, cell viability 72 h (AZD8186): > 3000 nM | IC50, cell viability 72 h (AZD5991): > 1000 nM | IC50, cell viability 72 h (AZD4320): 825 nM | IC50, cell viability 72 h (Taselisib): > 10000 nM | IC50, cell viability 72 h (Crizotinib): > 10000 nM | IC50, cell viability 72 h (Selumetinib): > 10000 nM | IC50, cell viability 72 h (AZD1775): 1620 nM | IC50, cell viability 72 h (AZD6738): > 10000 nM | IC50, cell viability 72 h (Trametinib): > 1000 nM | IC50, cell viability 72 h (Prexasertib): 656 nM | IC50, cell viability 72 h (AZD0156): > 3000 nM | IC50, cell viability 72 h (Capivasertib): > 10000 nM | IC50, cell viability 72 h (SN-38): 296 nM | IC50, cell viability 72 h (Alisertib): > 10000 nM | IC50, cell viability 72 h (AZD7648): > 10000 nM | IC50, cell viability 72 h (Doxorubicin): > 1000 nM | IC50, cell viability 72 h (SG3199): > 1 nM | IC50, cell viability 72 h (Olaparib): > 10000 nM | IC50, cell viability 72 h (AZD1390): > 300 nM | IC50, cell viability 72 h (Gefitinib): > 10000 nM | IC50, cell viability 72 h (Savolitinib): > 1000 nM | IC50, cell viability 72 h (Lapatinib): > 10000 nM | IC50, cell viability 72 h (Dasatinib): > 2000 nM | IC50, cell viability 72 h (Palbociclib): > 10000 nM | IC50, cell viability 72 h (AZD2811): > 1000 nM

HEC-1 (Endometrial Carcinoma)
IC50, cell viability 72 h (Venetoclax): > 1000 nM | IC50, cell viability 72 h (AZD5153): 881 nM | IC50, cell viability 72 h (AZD8186): > 3000 nM | IC50, cell viability 72 h (AZD5991): > 1000 nM | IC50, cell viability 72 h (AZD4320): > 1000 nM | IC50, cell viability 72 h (Taselisib): > 10000 nM | IC50, cell viability 72 h (Crizotinib): > 10000 nM | IC50, cell viability 72 h (Selumetinib): > 10000 nM | IC50, cell viability 72 h (AZD1775): 1810 nM | IC50, cell viability 72 h (AZD6738): > 10000 nM | IC50, cell viability 72 h (Trametinib): > 1000 nM | IC50, cell viability 72 h (Prexasertib): 493 nM | IC50, cell viability 72 h (AZD0156): > 3000 nM | IC50, cell viability 72 h (Capivasertib): > 10000 nM | IC50, cell viability 72 h (SN-38): > 300 nM | IC50, cell viability 72 h (Alisertib): > 10000 nM | IC50, cell viability 72 h (AZD7648): > 10000 nM | IC50, cell viability 72 h (Doxorubicin): > 1000 nM | IC50, cell viability 72 h (SG3199): > 1 nM | IC50, cell viability 72 h (Olaparib): > 10000 nM | IC50, cell viability 72 h (AZD1390): > 300 nM | IC50, cell viability 72 h (Gefitinib): > 10000 nM | IC50, cell viability 72 h (Savolitinib): > 1000 nM | IC50, cell viability 72 h (Lapatinib): > 10000 nM | IC50, cell viability 72 h (Dasatinib): > 2000 nM | IC50, cell viability 72 h (Palbociclib): > 10000 nM | IC50, cell viability 72 h (AZD2811): > 1000 nM
